The text below walks through data of US20030032602A1, “Methods and compositions for collagen homeostasis” (priority 2001, published 2003).

The test system of this test is collagenase from Clostridium histolyticum (EC 3.4.24.3). Put plainly: Inhibition of collagenase with fluorophor labeled Gelatin-FL, Collagen I-FL and Collagen IV-FL as substrate. Format: biochemical. To be noted: substrates collagen I, collagen IV and denatured collagen (gelatin), fluorescence-labeled; incubation 60 min at 37° C.; FIGS. 1A-1C. How it is done: The following examples have been provided to illustrate various aspects of the inventive subject matter. More particularly, all examples employed commercially available collagenase from Clostridium histolyticum (EC 3.4.24.3; Fluka Chemie AG, Switzerland) and commercially available collagen-I and collagen-IV (Molecular Probes, OR, USA).
Inhibition of collagenase from Clostridium histolyticum was determined using fluorophor labeled Gelatin-FL, Collagen I-FL and Collagen IV-FL as substrate. Negative control was Mg ascorbyl-2-phosphate (MAP), and exemplary boron-containing compounds were AB(F-D) and AB (V-E), which represented two different batches of potassium ascorbato-borates. The assay was performed under standard conditions with incubation and of substrate for 60 min at 37° C. and fluorescence was measured in a standard fluorometer. The results of the inhibition experiments are depicted in FIGS. 1A-1C. With respect to the inhibitors, the first column represents the negative control MAP, while the second and third columns represent exemplary boron-containing compounds AB(F-D) (potassium ascorbato-borate) and AB(V-E) (potassium ascorbato-borate). […] Moreover, additional experiments (data not shown) confirmed the inhibitory character of numerous other boron-containing compounds, and especially boron-containing compounds in which borate is complexed by one or more ligands.

Turning to potassium ascorbato-borate [AB(F-D)], the inhibition of collagenase entry is given as “specific inhibitory compounds for collagenase”.
